# Results as given in article PMC4331264 (Biochimica et biophysica acta, 2015).
# Read-outs that look alike come from different tables or passages of the source.
# Legend:
# [1] = test system: Saccharomyces cerevisiae LM102 cells expressing Ste2p-FT-HT; assay: Growth arrest; assay type: cell-based; settings: for halo area in presence of novobiocin: novobiocin 2.2 mg/4.5 ml Noble agar-cell mixture; for growth arrest activity of peptide alone: peptide alone 15 μg/disk, no α-factor; for halo (zone of growth inhibition) area on co-spotting with α-factor: α-factor 0.1 μg/disk plus peptide 15 μg/disk, three replicates
# [2] = test system: Ste2p-FT-HT signalling in LM102 cells (FUS1-lacZ); assay: FUS1-lacZ reporter gene assay; assay type: cell-based, Saccharomyces cerevisiae; settings: for FUS1-lacZ reporter gene activity of peptide alone: peptide alone (30 μM), absence of α-factor; for increase in FUS1-lacZ reporter gene activity over α-factor alone: α-factor 50 nM plus peptide 30 μM, 90 min, 30°C, mean of three determinations
# Ste2p-FT-HT [3] = target: T1, Ste2p-FT-HT (Saccharomyces cerevisiae, UniProt D6VTK4, C252S/C59S); assay type: binding; settings: [3H]α-factor 5 nM; novobiocin 10^−4 M to 10^−11 M; 30 min on ice
# Ste2p-FT-HT [4] = target: T1, Ste2p-FT-HT; assay type: binding; settings: [Bio-DOPA]11-mer 85 μM
# Ste2p-FT-HT [5] = target: T1, Ste2p-FT-HT; assay type: binding; settings: read-out: cross-linking of [Bio-DOPA]13-mer, % of control, novobiocin 5 mM, [Bio-DOPA]13-mer 10 μM
# Ste2p [6] = settings: cited from earlier work
# Ste2p [7] = settings: cited from earlier work; remark: listed apart in the source
# T1 sequence (D6VTK4 whole entry C59S/C252S): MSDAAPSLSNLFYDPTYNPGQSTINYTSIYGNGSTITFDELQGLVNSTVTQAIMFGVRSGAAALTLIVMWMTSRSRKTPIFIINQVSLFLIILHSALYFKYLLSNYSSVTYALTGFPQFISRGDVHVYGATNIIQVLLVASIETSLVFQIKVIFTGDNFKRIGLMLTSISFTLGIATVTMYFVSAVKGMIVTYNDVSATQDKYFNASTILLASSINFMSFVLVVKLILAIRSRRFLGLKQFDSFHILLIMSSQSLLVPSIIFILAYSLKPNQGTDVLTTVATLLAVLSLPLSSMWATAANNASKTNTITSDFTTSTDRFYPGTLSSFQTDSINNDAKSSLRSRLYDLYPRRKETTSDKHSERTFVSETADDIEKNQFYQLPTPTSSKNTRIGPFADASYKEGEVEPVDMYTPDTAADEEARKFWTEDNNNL
compound,measurement,setting,value
CO[C@@H]1[C@@H](OC(N)=O)[C@@H](O)[C@H](Oc2ccc3c(O)c(NC(=O)c4ccc(O)c(CC=C(C)C)c4)c(=O)oc3c2C)OC1(C)C [novobiocin],intrinsic agonistic activity in growth arrest assay,"[1]; novobiocin by itself, up to 2.2 mg/disk","no measurable, intrinsic agonistic activity"
same,"increase of halo area in presence of novobiocin, without paper disk",[1]; α-factor 10 ng spotted directly onto lawn containing novobiocin 2.2 mg/lawn,45%
same,halo area in presence of novobiocin,[1]; α-factor 0.1 μg/disk,155 ± 24 mm^2
same,halo area in presence of novobiocin,[1]; α-factor 0.2 μg/disk,273 ± 14 mm^2
same,FUS1-lacZ response to novobiocin in presence of α-factor,"[2]; 25 nM α-factor, repeated three times",dose-dependent increase in activity up to 12.5 μM
same,"FUS1-lacZ reporter gene activity, novobiocin by itself","[2]; no α-factor, concentrations up to 37.5 μM",failed to increase reporter gene activity
same,"FUS1-lacZ reporter gene activity, novobiocin by itself, higher amounts","[2]; no α-factor, up to 400 μM, data not shown",failed to stimulate reporter gene activity
same,competition with [3H]α-factor for binding to Ste2p-FT-HT,Ste2p-FT-HT [3],did not prevent α-factor binding to the receptor
same,maximal inhibition of [Bio-DOPA]11-mer cross-linking,"Ste2p-FT-HT [4]; between 10 and 50 mM novobiocin, Fig. 6",~ 90%
same,remaining activity at 5000 µM,"Ste2p-FT-HT [4]; read-out: labeling (cross-linking of [Bio-DOPA]11-mer), % of control level, novobiocin 5 mM, average over 3 replicate blots",26%
same,remaining activity at 5000 µM,Ste2p-FT-HT [5]; average over 3 replicate blots,118%
same,remaining activity at 5000 µM,Ste2p-FT-HT [5]; blot in Fig. 5,136%
same,agonistic activity in growth arrest assays,Ste2p [6]; S. cerevisiae strain supersensitive to α-factor,weak agonistic activity
"DOPA-HWLQLK(BiotinACA)PGQP [[Bio-DOPA]11-mer, [DOPA^1, K^7 (BiotinACA),desM^12desY^13] α-factor]",growth arrest activity of peptide alone,[1],no intrinsic biological activity
same,halo (zone of growth inhibition) area on co-spotting with α-factor,[1],309 ± 27 mm^2
same,FUS1-lacZ reporter gene activity of peptide alone,[2],no intrinsic biological activity
same,increase in FUS1-lacZ reporter gene activity over α-factor alone,[2],approximately 2 fold
WHWLQLKPGQP [11-mer],growth arrest activity of peptide alone,[1],no biological activity
same,halo (zone of growth inhibition) area on co-spotting with α-factor,[1],382 ± 36 mm^2
same,FUS1-lacZ reporter gene activity of peptide alone,[2],did not stimulate reporter gene activity over control levels
same,increase in FUS1-lacZ reporter gene activity over α-factor alone,[2],2.5 fold
same,innate biological activity,Ste2p [6]; wild-type yeast strain,no innate biological activity
same,agonist activity in supersensitive mutant,Ste2p [6]; yeast mutant supersensitive to the ligand,very weak agonist
same,competition for binding with α-factor,Ste2p [7],did not compete for binding with α-factor
same,influence on affinity of the receptor for α-factor,Ste2p [7]; wild-type yeast strain,did not influence the affinity of the receptor for the ligand
"[DOPA^1, K^7 (BiotinACA)] α-factor [[Bio-DOPA]13-mer]",biological activity,Ste2p [6]; binds the orthosteric site of the receptor,retains biological activity
